Experiments:
[1] = Sample stability in HBSS (+/+) after 6 weeks of storage (UHPLC-UV peak area); type: physicochemical
Method: To evaluate stability, three different calibrators within the linear concentration range (10 (low), 100 (medium), and 500 (high) μM) were prepared and injected into the UHPLC. The remaining volume of each calibrator was divided into several vials and further stored at different temperatures (room temperature, 4 °C, −20 °C, and −80 °C) for 6 weeks (the same storage time of the samples obtained from the permeability assay with Caco-2 cells). After the storage period, samples were injected in duplicate and the obtained analyte peak area for each calibrator in each temperature was compared with the peak area obtained on day 0. Percentages of peak variation were calculated for each concentration.

Caco-2 cells [2] = assay: Cell viability assay (Neutral Red) in Caco-2 cells; type: cell-based, human; conditions: 24 h, NR assay
Method: MDPV cytotoxicity for the Caco-2 cell line was evaluated through the NR assay as previously described. This method provides an indication of the ability of lysosomes from viable cells to incorporate the NR dye. Caco-2 cells were seeded onto 96-well plates using a density of 60,000 cells/cm^2 to obtain confluent monolayers at the experimental day. The cells were incubated with the racemate of MDPV (0, 50, 150, 300, 500, 750, 1000, 1250, and 1500 µM) in fresh cell culture medium for 24 h. After the selected time interval, the cell culture medium was removed and replaced by a 50 µg/mL NR solution in HBSS (+/+) for 90 min, after which the NR solution was discarded, a lysis solution (50% EtOH/1% glacial acetic acid solution) was added, and the absorbance was read at 540 nm in a 96-well plate reader (PowerWaveX; Bio-Tek, Winooski, VT, USA). Additionally, 1% Triton X-100 was used as the positive control. Data were expressed as the percentage of cell viability relative to untreated cells. Data were obtained from four independent experiments performed in triplicate.

Caco-2 model = system: Caco-2 model; parameters: method as in PMID 32234388; conditions: cited from earlier work
Caco-2 monolayer = assay: Permeability assay across the Caco-2 monolayer; type: in vitro ADME, human; conditions: mean ± SD; for Mass Balance (%): 300 µM in HBSS (+/+), 300 min
Method: For the in vitro permeability assay, Caco-2 cells were seeded on polycarbonate transwell inserts (12-well, 0.4 μm pores, Corning) using a density of 120,000 cells/cm^2 and cultivated for twenty-one days to allow the development of a differentiated monolayer. TEER was measured to control the integrity of the monolayers for twenty-one days.
After twenty-one days, the cells were incubated with 300 µM of each enantiomer of MDPV (in HBSS (+/+)). The assay was performed for both AP to BL and BL to AP directions. For AP to BL, exposure to the enantiomers was performed in the AP compartment (450 µL) while for BL to AP, exposure was made in the BL compartment (1250 µL). Right after the exposure (time 0), 50 µL was collected from each donor compartment (where exposure was performed). At suitable time intervals (40, 60, 90, 120, 180, 240, and 300 min), 600 µL (for AP to BL) and 200 µL (for BL to AL) of samples was collected from the BL and AP compartments (receiver compartments), respectively, and the same amount of HBSS (+/+) was added. In the last time point (300 min), 50 µL was also collected from the donor compartment. Collected samples were stored at −80 °C until the day of the UHPLC analysis. After 6 weeks of storage, samples were filtered with a 13 mm nylon syringe filter with […] pore size from Olimpeak™ and quantification was performed by the validated UHPLC-UV method. Results were obtained for three experiments, performed in duplicate.
Mass balance was calculated using the following equation [31]:(5) % Mass balance=100×QR,T+QD,f/QD,0 where QR,T is the total cumulative quantity in the receiver chamber (nmol), QD,f is the final quantity in the donor chamber (nmol), and QD,0 is the initial quantity in the donor chamber (nmol).
To calculate Papp, first, a determination had to be made to determine whether the results were under sink or non-sink conditions. […] If the ratio is higher, Papp has to be calculated considering a non-sink analysis.
For sink conditions, Papp was calculated in cm/s using the following equation [24]:(6) Papp=ΔQ/Δt×1/A×C0 where ΔQ/Δt is the amount of compound over time (mol/s), A is the surface area of the monolayer (cm^2), and C0 is the initial drug concentration on the donor side (mol/mL).
For non-sink conditions, a continuous change of the donor and receiver concentrations is considered, and the following equation must be used for each time interval to calculate the theoretical concentration at the receiver side:(7) CR(t)=(Qtot/VD+VR)+(CR(t−1)×f−Qtot/VD+VR)×e^−P×A×(1/VR+1/VD)×Δt where CR(t) is the theoretical concentration in the receiver side at time t (µM), Qtot is the total amount of drug in both chambers at time t (nmol), VR and VD are the volumes in the receiver and donor compartments (mL), respectively, CR(t-1) is the concentration in the receiver chamber at the previous time (µM), f is the dilution factor for the sample replacement, A is the surface area of the monolayer (cm^2), Δt is the time interval (s), and P is an initial approximation of the permeability coefficient calculated through Equation (6) (cm/s).
Papp values are determined by the minimization of the Sum of Squared Residuals (SSR):(8) SSR=∑[CR(t)theor−CR(t)exp]^2 where CR(t)theor is the theoretical concentration in the receiver side at time t calculated through Equation (7) and CR(t)exp is the experimental concentration in the receiver side at time t obtained directly from the quantification of the samples. […]

Caco-2 cells [3] = conditions: racemates; cited from earlier work

CCCC(C(=O)c1ccc2c(c1)OCO2)N1CCCC1 (centres unmarked) [MDPV, 3,4-Methylenedioxypyrovalerone]
% peak area variation relative to day 0 ([1]; 10 µM in HBSS (+/+), 6 weeks of storage at 4 °C): 10.9% | % peak area variation relative to day 0 ([1]; 10 µM in HBSS (+/+), 6 weeks of storage at RT): 11.0% | % peak area variation relative to day 0 ([1]; 10 µM in HBSS (+/+), 6 weeks of storage at −20 °C): 12.5% | % peak area variation relative to day 0 ([1]; 10 µM in HBSS (+/+), 6 weeks of storage at −80 °C): 7.1% | % peak area variation relative to day 0 ([1]; 100 µM in HBSS (+/+), 6 weeks of storage at 4 °C): 9.1% | % peak area variation relative to day 0 ([1]; 100 µM in HBSS (+/+), 6 weeks of storage at RT): 11.9% | % peak area variation relative to day 0 ([1]; 100 µM in HBSS (+/+), 6 weeks of storage at −20 °C): 10.4% | % peak area variation relative to day 0 ([1]; 100 µM in HBSS (+/+), 6 weeks of storage at −80 °C): 8.6% | % peak area variation relative to day 0 ([1]; 500 µM in HBSS (+/+), 6 weeks of storage at 4 °C): 3.4% | % peak area variation relative to day 0 ([1]; 500 µM in HBSS (+/+), 6 weeks of storage at RT): 10.2% | % peak area variation relative to day 0 ([1]; 500 µM in HBSS (+/+), 6 weeks of storage at −20 °C): 5.3% | % peak area variation relative to day 0 ([1]; 500 µM in HBSS (+/+), 6 weeks of storage at −80 °C): 6.8% | Concentration from which a significant decrease in cell viability was observed (Caco-2 cells [2]): ≥ 1000 µM | Concentration with no statistically significant differences in cell viability (Caco-2 cells [2]; tested up to 1500 µM): ≤ 750 µM

CCC[C@@H](NC)C(=O)c1ccccc1 [R-(-)-pentedrone]
Enantioselectivity in permeability (more permeable enantiomer) (Caco-2 model): most permeable

CCC[C@@H](C(=O)c1ccc2c(c1)OCO2)N1CCCC1 [S-(-)-MDPV]
Mass Balance (%) (Caco-2 monolayer; AP → BL direction): 100 ± 2% | Papp (Caco-2 monolayer; AP → BL direction, sink conditions (Equation 6), 300 µM): 1.8e-05 ± 1e-06 cm/s | Mass Balance (%) (Caco-2 monolayer; BL → AP direction): 101 ± 4% | Papp (Caco-2 monolayer; BL → AP direction, non-sink conditions (Equation 7), 300 µM): 3.4 × 10^−5 ± 1 × 10^−6 ****^; # cm/s | Efflux Ratio (Caco-2 monolayer; Papp (BL→AP)/Papp (AP→BL), 300 µM): 1.8 ± 0.2

CN[C@@H](C)C(=O)c1ccc2c(c1)OCO2 [S-(-)-methylone]
Enantioselectivity in permeability (more permeable enantiomer) (Caco-2 model): most permeable

CNC(C)C(=O)c1ccc2c(c1)OCO2 (centres unmarked) [methylone]
Concentration range with no cytotoxic effects (Caco-2 cells [3]): up to 2000 μM

CCCC(NC)C(=O)c1ccccc1 (centres unmarked) [pentedrone]
Concentration range with no cytotoxic effects (Caco-2 cells [3]): up to 2000 μM
